Data taken from patent US4347319A, “Microbiological epoxidation process” (priority 1980, dated 1982).

Legend:
[1] = system: Candida utilis ATCC 26387; test: Oxidation of sec-alcohols to ketones by cell suspensions of yeasts; assay type: cell-based; details: sec-alcohol to methyl ketone
[2] = system: Methylobacterium organophilum CRL 26 NRRL B-11,222; test: Sec. alcohol oxidation by cell suspensions of methanol-grown cells; assay type: cell-based; details: sec. alcohol to methyl ketone
Text: (§1) In this example, the procedure of Example 1 was repeated except that a plurality of the methane-utilizing methylotrophic microorganisms of the invention were each aerobically grown in a methanol-containing nutrient medium instead of a methane-containing medium. The nutrients in the medium were the same as indicated in Example 1 except that 0.4% v/v methanol was used as the alcohol dehydrogenase enzyme inducer and major source of carbon and energy for growth. Following growth the cells were harvested and washed as described in Example 1. The resting cells of the induced methanol-grown methylotrophic microorganisms were then contacted with a […] under aerobic conditions in a buffered solution by the procedure described in Example 1.

[3] = system: Methylomonas methanica CRL M4P NRRL B-11,205; test: as above; assay type: cell-based; details: sec. alcohol to methyl ketone
Text: as §1

[4] = system: Methylosinus trichosporium CRL 15 NRRL B-11,202; test: as above; assay type: cell-based; details: sec. alcohol to methyl ketone
Text: as §1

[5] = system: Methylococcus capsulatus CRL 25 NRRL B-11,221; test: as above; assay type: cell-based; details: sec. alcohol to methyl ketone
Text: as §1

[6] = system: Methylobacter bovis CRL 19 NRRL B-11,217; test: as above; assay type: cell-based; details: sec. alcohol to methyl ketone
Text: as §1

[7] = system: Methylobacter vinelandii CRL M5Y NRRL B-11,218; test: as above; assay type: cell-based; details: sec. alcohol to methyl ketone
Text: as §1

[8] = system: Methylococcus capsulatus CRL M1 NRRL B-11,219; test: as above; assay type: cell-based; details: sec. alcohol to methyl ketone
Text: as §1

[9] = system: Methylomonas streptobacterium CRL 17 PM3 NRRL B-11,208; test: as above; assay type: cell-based; details: sec. alcohol to methyl ketone
Text: as §1

[10] = system: Methylobacter chroococcum CRL M6 NRRL B-11,214; test: as above; assay type: cell-based; details: sec. alcohol to methyl ketone
Text: as §1

[11] = system: Methylocystis parvus CRL 18 NRRL B-11,204; test: as above; assay type: cell-based; details: sec. alcohol to methyl ketone
Text: as §1

[12] = system: Methylobacter bovis (CRL M1Y) NRRL B-11,216; test: Oxidation by washed cell suspensions of methane-grown cells; assay type: cell-based; details: methane-grown cells; isopropanol to acetone, 2-butanol to 2-butanone
Method: The pH of the nutrient medium was adjusted to 7.0 by the addition of acid or base and 50 ml samples of the nutrient medium were charged into a plurality of 300 ml shaker flasks. The shaker flasks were inoculated with an inoculating loop of cells from an agar plate containing homogeneous colonies of the microorganisms on the plate (the purity of the isolates was confirmed by microscopic examination. The isolates had been maintained on agar plates under an atmosphere of methane and air having a 1:1 v/v gas ratio which had been transferred evey two weeks. The gaseous phase of the inoculated flasks was then replaced with a gas mixture comprised of methane and air having a ratio of 1:1 on a v/v basis. […]
The cells were harvested by centrifugation at 10,000×g. at 4° C. for 30 minutes. The cell pellet was washed twice with a 0.15 M phosphate buffer at a pH of 7.0 (containing 0.002 M MgCl2). The washed cells were then suspended in a 0.15 M phosphate buffer at pH 7.0.
A 0.5 ml sample of each washed cell suspension (2 mg cells) was put into 10 ml vials at 4° C. which were sealed with a rubber cap. The gaseous phase of the vials was removed with vacuum and then was replaced with a gas mixture of the oxidative substrate (e.g., methane) and oxygen at a 1:1 v/v ratio. The vials were then incubated at 30 ° C. on a rotary shaker at 300 rpm. Samples of product (3 μl) were withdrawn periodically with a microsyringe and the products were analyzed by gas chromatography (ionization flame detector column).
The newly discovered and isolated microorganism strains of the present invention were each grown aerobically in the presence of methane in the manner described above. The methane-grown microbial cells were then washed, recovered and put to use in oxidizing an oxidative substrate by the procedure described above except in the case of a liquid substrate 10 μl of the substrate were used.

[13] = system: Methylomonas rubrum (CRL M6P) NRRL B-11,210; test: as above; assay type: cell-based; details: methane-grown cells; isopropanol to acetone
How it was run: (§2)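 Cells grown 2 days at 30 °C under methane/air 1:1 (pH 7.0 medium), washed and resuspended in 0.15 M phosphate pH 7.0. Suspension (2 mg cells) incubated at 30 °C, 300 rpm under substrate/O2 1:1 (liquid substrates 10 μl); products measured periodically by GC with flame ionization detection.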

[14] = system: Methylococcus capsulatus (CRL M1) NRRL B-11,219; test: as above; assay type: cell-based; details: methane-grown cells; isopropanol to acetone, 2-butanol to 2-butanone
How it was run: as §2

[15] = system: Methylobacter chroococcum (CRL M6) NRRL B-11,214; test: as above; assay type: cell-based; details: methane-grown cells; isopropanol to acetone, 2-butanol to 2-butanone
How it was run: as §2

[16] = system: Methylosinus trichosporium (CRL 15 PM1) NRRL B-11,202; test: as above; assay type: cell-based; details: methane-grown cells; isopropanol to acetone, 2-butanol to 2-butanone
How it was run: as §2

[17] = system: Methylobacterium organophilum (CRL 26 R6) NRRL B-11,222; test: as above; assay type: cell-based; details: methane-grown cells; isopropanol to acetone, 2-butanol to 2-butanone
How it was run: as §2

[18] = system: Torulopsis sp. Strain A1 (NRRLY-11,419); test: Oxidation of sec-alcohols to ketones by cell suspensions of yeasts; assay type: cell-based; details: sec-alcohol to methyl ketone
[19] = system: cell extract of Torulopsis sp. strain A1 NRRL-Y-11,419; test: Oxidation of secondary alcohols to methylketone by cell extracts of yeasts; assay type: biochemical; details: methanol-grown; cell extract + NAD^+; sec. alcohol to methyl ketone; gas chromatography
[20] = system: Kloeckera sp. Strain A2 (NRRLY-11,420); test: Oxidation of sec-alcohols to ketones by cell suspensions of yeasts; assay type: cell-based; details: sec-alcohol to methyl ketone
[21] = system: purified secondary alcohol dehydrogenase (SADH) from Pseudomonas sp. ATCC 21439; test: Kinetics and substrate specificity of purified SADH; assay type: biochemical; details: 2-butanol = 100%
[22] = system: cell extract of Candida utilis ATCC 26,387; test: Oxidation of secondary alcohols to methylketone by cell extracts of yeasts; assay type: biochemical; details: methanol-grown; cell extract + NAD^+; sec. alcohol to methyl ketone; gas chromatography
[23] = system: purified secondary alcohol dehydrogenase from Pichia sp. NRRL Y-11,328; test: Substrate specificity, electron acceptor and stoichiometry of purified yeast SADH; assay type: biochemical; details: examined spectrophotometrically
[24] = system: Hansenula polymorpha ATCC 26012; test: Oxidation of sec-alcohols to ketones by cell suspensions of yeasts; assay type: cell-based; details: sec-alcohol to methyl ketone
Pichia sp. NRRL-Y-11328 = test: as above; assay type: cell-based; details: sec-alcohol to methyl ketone
[25] = system: cell extract of Pichia sp. NRRL-Y-11,328; test: Oxidation of secondary alcohols to methylketone by cell extracts of yeasts; assay type: biochemical; details: methanol-grown; cell extract + NAD^+; sec. alcohol to methyl ketone; gas chromatography
[26] = system: cell extract of Kloeckera sp. strain A2 NRRL-Y-11,420; test: as above; assay type: biochemical; details: methanol-grown; cell extract + NAD^+; sec. alcohol to methyl ketone; gas chromatography
[27] = system: cell extract of Hansenula polymorpha ATCC 26,012; test: as above; assay type: biochemical; details: methanol-grown; cell extract + NAD^+; sec. alcohol to methyl ketone; gas chromatography

For `CC(C)O` [Isopropanol], the “Conversion Rate” value ([1]; growth substrate Ethanol) was 5.2 μmoles/hr/mg of protein, the “Conversion Rate” value ([1]; growth substrate Methanol) was 6.2 μmoles/hr/mg of protein and the “Conversion Rate” value ([1]; growth substrate Methylamine) was 5.0 μmoles/hr/mg of protein. For the same molecule, the “Conversion Rate” value ([1]; growth substrate Methylformate) was 5.6 μmoles/hr/mg of protein, the “Conversion Rate” value ([1]; growth substrate Propylamine) was 4.2 μmoles/hr/mg of protein and the “Conversion Rates” value [2] was 0.72 μmoles/hr/mg protein. The “Conversion Rates” value [3] was 2.0 μmoles/hr/mg protein, the “Conversion Rates” value [4] was 0.50 μmoles/hr/mg protein and the “Conversion Rates” value [5] was 0.62 μmoles/hr/mg protein. For the same molecule, the “Conversion Rates” value [6] was 0.40 μmoles/hr/mg protein, the “Conversion Rates” value [7] was 2.0 μmoles/hr/mg protein and the “Conversion Rates” value [8] was 5.0 μmoles/hr/mg protein. For the same molecule, the “Conversion Rates” value [9] was 0.67 μmoles/hr/mg protein, the “Conversion Rates” value [10] was 1.0 μmoles/hr/mg protein and the “Conversion Rates” value [11] was 0.25 μmoles/hr/mg protein. The “Conversion Rate to Ketone, 2 hrs.” value [12] was 5 μmole/2 mg protein, the “Conversion Rate to Ketone, 2 hrs.” value [13] was 1 μmole/2 mg protein and the “Conversion Rate to Ketone, 2 hrs.” value [14] was 3 μmole/2 mg protein. The “Conversion Rate to Ketone, 20 hrs.” value [14] was 15 μmole/2 mg protein, the “Conversion Rate to Ketone, 2 hrs.” value [15] was 1 μmole/2 mg protein and the “Conversion Rate to Ketone, 20 hrs.” value [15] was 8 μmole/2 mg protein. For the same molecule, the “Conversion Rate to Ketone, 2 hrs.” value [16] was 3 μmole/2 mg protein, the “Conversion Rate to Ketone, 2 hrs.” value [17] was 3 μmole/2 mg protein and the “Conversion Rate” value ([18]; growth substrate Ethanol) was 4.2 μmoles/hr/mg of protein. The “Conversion Rate” value ([18]; growth substrate Methanol) was 4.5 μmoles/hr/mg of protein, the “Conversion Rate” value ([18]; growth substrate Methylamine) was 4.3 μmoles/hr/mg of protein and the “Conversion Rate” value ([18]; growth substrate Methylformate) was 4.5 μmoles/hr/mg of protein. The “Conversion Rate” value ([18]; growth substrate Propylamine) was 3.2 μmoles/hr/mg of protein, the “Conversion Rate” value [19] was 4.5 μmoles/hr/mg Protein and the “Conversion Rate” value ([20]; growth substrate Ethanol) was 4.5 μmoles/hr/mg of protein. The “Conversion Rate” value ([20]; growth substrate Methanol) was 4.8 μmoles/hr/mg of protein, the “Conversion Rate” value ([20]; growth substrate Methylamine) was 4.0 μmoles/hr/mg of protein and the “Conversion Rate” value ([20]; growth substrate Methylformate) was 4.9 μmoles/hr/mg of protein. For the same molecule, the “Conversion Rate” value ([20]; growth substrate Propylamine) was 4.0 μmoles/hr/mg of protein, the “relative percent rate of oxidation” value [21] was 85% and the “Conversion Rate” value [22] was 4.5 μmoles/hr/mg Protein. The “oxidation by the purified enzyme” value [23] was “catalyzed the oxidation”, the “Conversion Rate” value ([24]; growth substrate Ethanol) was 5.0 μmoles/hr/mg of protein and the “Conversion Rate” value ([24]; growth substrate Methanol) was 5.9 μmoles/hr/mg of protein. For the same molecule, the “Conversion Rate” value ([24]; growth substrate Methylamine) was 5.2 μmoles/hr/mg of protein, the “Conversion Rate” value ([24]; growth substrate Methylformate) was 5.6 μmoles/hr/mg of protein and the “Conversion Rate” value ([24]; growth substrate Propylamine) was 4.1 μmoles/hr/mg of protein. The “Conversion Rate” value (Pichia sp. NRRL-Y-11328; growth substrate Ethanol) was 4.5 μmoles/hr/mg of protein, the “Conversion Rate” value (Pichia sp. NRRL-Y-11328; growth substrate Methanol) was 5.2 μmoles/hr/mg of protein and the “Conversion Rate” value (Pichia sp. NRRL-Y-11328; growth substrate Methylamine) was 4.2 μmoles/hr/mg of protein. The “Conversion Rate” value (Pichia sp. NRRL-Y-11328; growth substrate Methylformate) was 4.9 μmoles/hr/mg of protein, the “Conversion Rate” value (Pichia sp. NRRL-Y-11328; growth substrate Propylamine) was 3.2 μmoles/hr/mg of protein and the “Conversion Rate” value [25] was 5.5 μmoles/hr/mg Protein. For the same molecule, the “Conversion Rate” value [26] was 4.8 μmoles/hr/mg Protein and the “Conversion Rate” value [27] was 4.8 μmoles/hr/mg Protein.
